Data taken from patent publication US20130310411A1, “NOVEL ACRIDINE DERIVATIVES” (PHARMINOX LIMITED, priority 2010, published 2013).

Tests used:
[1] = system: HT-29: human adenocarcinoma cell line; assay: Growth inhibition assay (MTT); format: cell-based; conditions: HT-29 cells, 96 hr incubation
Protocol: Growth inhibition was measured in the HT-29: human adenocarcinoma cell line using the 3-(4,5-Dimethylthiazol-2-yl)-2,5-diphenyltetrazolium bromide (MTT) assay:
Briefly, between 1500 and 2200 cells were seeded into the wells of 96-well microtiter plates and allowed to attach overnight. Test compounds were solubilised at 10 mM in dimethyl sulfoxide (DMSO), diluted in tissue culture media and added to cells at final concentrations of 30, 10, 3, 1, 0.3, 0.1, 0.03 and 0.01 μM in triplicate. Following an incubation period of 96 hr MTT was added to a final concentration of 400 μg/ml and the plates incubated for a further 4 hr. The media/MTT was then aspirated and 150 μl DMSO added. Plates were shaken briefly and the absorbance at 550 nm read using a Labtech LT-4000 plate reader. An extra plate was seeded and the MTT assay was carried out on this plate at the time of drug addition to ascertain an initial absorbance value.
Dose response curves were plotted and the GI50 values (concentration required to inhibit cell growth by 50%) determined for each agent where the absorbance value for control cells minus the initial absorbance was taken as 100% growth.

[2] = system: hTel, 5′ biotin-d[AG3(T2AG3)3]3′ (quadraplex) versus duplex, 5′biotind[CGA3T3C2TCTGA3T3CG]3′; assay: Surface Plasmon Resonance Assay (SPR); format: binding; conditions: HEPES buffer pH 7.3, 25° C.
Protocol: Biosensor experiments were conducted in filtered, degassed HEPES buffer (10 mM HEPES, 100 mM KCl, 3 mM EDTA, 0.000 05 v/v of 10% P20 BIACORE surfactant, pH 7.3) at 25° C. The 5′-biotin labeled DNA sequences (Integrated DNA Technologies) were HPLC purified and comprise the following sequences: hTel, ^5′ biotin-d[AG3(T2AG3)3]^3′; duplex, ^5′biotind[CGA3T3C2TCTGA3T3CG]^3′. The experiments were conducted upon a BIAcore 2000 optical biosensor instrument (BIAcore Inc.). Flow cell 1 was left blank as a reference, while flow cells 2-4 were immobilized with DNA on a streptavidin-derivatized gold chip (SA chip from BIAcore) by manual injection of DNA stock solutions (flow rate of 1 μL/min) until the desired value of DNA response was obtained (350-400 RU). Typically, a series of different ligand concentrations (1 nM to 10 μM from 20 mM DMSO stock) were injected onto the chip (flow rate of 50 μL/min, 5-10 min) until a constant steady-state response was obtained followed by a dissociation period (buffer, 10 min). After every cycle, the chip surface was regenerated (20 s injection of 10 mM glycine solution, pH 2.0) followed by running buffer flow. The data were processed using BIAevaluation (BIAcore Inc.) and Kaleidagraph (Synergy Software) software for nonlinear least-squares optimization of the binding parameters.

Compound	GI50 [1]	Quadraplex:duplex ratio [2]
CC(=O)Nc1cccc2c1-c1cccc3c1c(c1ccccc1[n+]3C)S2 [Example 18, 4-acetamido-8-methylthiochromeno[4,3,2-kl]acridin-8-ium iodide]	9.66 µM	
C[n+]1c2ccccc2c2c3c(cccc31)-c1ccccc1S2 [Example 3, 8-methylthiochromeno[4,3,2-kl]acridin-8-ium chloride]	3.04 µM	
COc1ccc2c3c4c(c(OC)ccc4[n+](C)c2c1)-c1ccccc1S3 [Example 19, 5,10-dimethoxy-8-methylthiochromeno[4,3,2-kl]acridin-8-ium iodide]	1.03 µM	
COC(=O)c1ccc2c(c1)Sc1c3ccccc3[n+](C)c3cccc-2c13 [Example 15, 2-(methoxycarbonyl)-8-methylthiochromeno[4,3,2-kl]acridin-8-ium chloride]	2.99 µM	18.1
COc1ccc2c(c1)-c1cccc3c1c(c1ccccc1[n+]3C)S2 [Example 8, 3-methoxy-8-methylthiochromeno[4,3,2-kl]acridin-8-ium chloride]	1.04 µM	
C[n+]1c2ccccc2c2c3c(cccc31)-c1ccccc1O2.[Cl-] [Example 2, 8-Methylchromeno[4,3,2-kl]acridin-8-ium chloride]	0.93 µM	4.75
c1ccc2c(c1)Oc1c3ccccc3nc3cccc-2c13 [Example 1, Chromeno[4,3,2-kl]acridine]	10.4 µM	
[O-][n+]1c2ccccc2c2c3c(cccc31)-c1ccccc1O2 [Example 4, chromeno[4,3,2-kl]acridine 8-oxide]	> 30 µM	7.5
CC(=O)Nc1ccc2c(c1)-c1cccc3nc4ccccc4c(c13)O2 [Example 6, N-(chromeno[4,3,2-kl]acridin-3-yl)acetamide]	9.39 µM	
COc1ccc2c(c1)-c1cccc3c1c(c1ccc(OC)cc1[n+]3C)S2 [Example 10, 3,10-dimethoxy-8-methylthiochromeno[4,3,2-kl]acridin-8-ium chloride]	0.27 µM	7.0
COC(=O)c1ccc2c(c1)-c1cccc3c1c(c1ccccc1[n+]3C)S2 [Example 20, 3-(methoxycarbonyl)-8-methylthiochromeno[4,3,2-kl]acridin-8-ium iodide and chloride]	6.46 µM	
COc1cccc2c1-c1cccc3c1c(c1ccccc1[n+]3C)S2 [Example 9, 4-methoxy-8-methylthiochromeno[4,3,2-kl]acridin-8-ium iodide]	0.95 µM	
COCOc1ccc2c(c1)-c1cccc3nc4ccccc4c(c13)S2 [Example 17, 3-(methoxymethoxy)thiochromeno[4,3,2-kl]acridine]	1.88 µM	
C[n+]1c2ccccc2c2c3c(cccc31)-c1cc(O)ccc1S2 [Example 14, 3-hydroxy-8-methylthiochromeno[4,3,2-kl]acridin-8-ium chloride]	3.67 µM	>80
COC(=O)c1cccc2c1-c1cccc3c1c(c1ccc(OC)cc1[n+]3C)S2 [Example 12, 10-methoxy-4-(methoxycarbonyl)-8-methylthiochromeno[4,3,2-kl]acridin-8-ium chloride]	4.49 µM	>53
CC(=O)Nc1ccc2c(c1)-c1cccc3c1c(c1ccccc1[n+]3C)O2 [Example 7, acetamido-8-methylchromeno[4,3,2-kl]acridin-8-ium chloride]	0.95 µM	
COC(=O)c1cccc2c1-c1cccc3c1c(c1ccccc1[n+]3C)S2 [Example 16, 4-(methoxycarbonyl)-8-methylthiochromeno[4,3,2-kl]acridin-8-ium iodide]	12.8 µM	
CCOC(=O)C[n+]1c2ccccc2c2c3c(cccc31)-c1ccccc1O2 [Example 5, 8-(2-ethoxy-2-oxoethyl)chromeno[4,3,2-kl]acridin-8-ium iodide]	9.88 µM	
CC(=O)Oc1ccc2c(c1)-c1cccc3c1c(c1ccccc1[n+]3C)S2 [Example 13, 3-acetoxy-8-methylthiochromeno[4,3,2-kl]acridin-8-ium chloride]	6.17 µM	
COC(=O)c1ccc2c(c1)Sc1c3ccc(OC)cc3[n+](C)c3cccc-2c13 [Example 11, 10-methoxy-2-(methoxycarbonyl)-8-methylthiochromeno[4,3,2-kl]acridin-8-ium chloride]	0.76 µM	17.4
